Measurements as given in patent publication US20240279195A1, “SOLID STATE FORMS OF ABEXINOSTAT AND PROCESS FOR PREPARATION THEREOF” (TEVA PHARMACEUTICALS INTERNATIONAL GMBH, priority 2021, published 2024).

Experiment: solid state stability of the crystalline form upon heating, pressure, grinding and exposure to humidity
Format: physicochemical

Substance	stability of the crystalline form
Abexinostat maleate [Form M1]	stable
Abexinostat fumarate [Form F3]	stable
Abexinostat tosylate [Form T1]	stable
